One test deals with T1, P2X7R (Homo sapiens, UniProt Q99572).
T1 construct: expressed in transfected cells; host or cells: HEK-293
T1 sequence (Q99572 1-595): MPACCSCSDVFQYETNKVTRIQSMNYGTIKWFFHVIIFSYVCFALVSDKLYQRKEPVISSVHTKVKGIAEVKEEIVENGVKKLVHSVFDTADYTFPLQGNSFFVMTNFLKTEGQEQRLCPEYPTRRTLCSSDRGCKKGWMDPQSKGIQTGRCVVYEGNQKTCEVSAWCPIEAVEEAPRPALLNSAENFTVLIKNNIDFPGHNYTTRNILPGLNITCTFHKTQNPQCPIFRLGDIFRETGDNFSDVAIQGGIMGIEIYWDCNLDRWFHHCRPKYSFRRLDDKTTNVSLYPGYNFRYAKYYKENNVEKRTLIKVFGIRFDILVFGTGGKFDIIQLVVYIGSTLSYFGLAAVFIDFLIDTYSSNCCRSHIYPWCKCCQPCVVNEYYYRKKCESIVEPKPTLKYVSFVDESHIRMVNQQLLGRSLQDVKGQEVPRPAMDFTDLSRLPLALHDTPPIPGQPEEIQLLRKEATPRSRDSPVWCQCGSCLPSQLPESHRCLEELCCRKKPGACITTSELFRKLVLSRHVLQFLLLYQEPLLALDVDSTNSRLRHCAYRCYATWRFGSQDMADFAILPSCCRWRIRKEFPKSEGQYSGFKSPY
The test can be described thus: Yo-Pro-1 uptake assay (Yo-Pro-1 Assay) in HEK-293 cells transiently transfected with P2X7R. The settings on record: for remaining activity at 5 µM: HEK293, compound at 5 μM, 30 μM bzATP stimulus, reading 1 hour after stimulation, transfected HEK-293 cells, read-out: Percentage of activity remains in the presence of the compound at 5 μM, P2X7R (Yo-Pro-1 Assay); for IC50: HEK-293 cells transiently transfected with P2X7R, 30 μM bzATP as stimulus, readings 1 hour after stimulation, estimated from dose-response curves. In kind it is cell-based. An excerpt:
(§1) Yo-Pro-1 Iodide (Cat. No Y3603 from Fisher Scientific) is a fluorescent DNA-binding dye with a MW of 629 Da. This method is based upon the Yo-Pro-1 entrance to cells through the dilated or “large pore form” of P2X7R and its binding to intracellular DNA whereby it increases its fluorescence intensity (J. Pharmacol. Exp. Ther. 308, 1053-1061). The dye has an absorption spectrum compatible with excitation at 488 nm by argon laser sources and its emission wavelength is in the range of 515-575 nm. This Yo-Pro-1 uptake was measured in HEK-293 cells transiently transfected with P2X7R (J. Biol. Chem. 290, 7930-7942). In Brief, HEK-293 cells were seeded in growth medium at approximately 20,000 cells/well in a 96-well plate on day 1. Transfection was performed on day 2 using Lipofectamine 2000 with the P2X7R DNA plasmid at the concentration of 1.7 μg/ml. The transfection solution was replaced with the growth medium 4 hours later. Fluorescent assays were conducted on day 4. On day 4, the medium was removed, the cells were washed with phosphate buffered saline (PBS) (Cat. No. MT21040CV from Fisher Scientific). Then, 25 μl of PBS were first loaded to each well followed by 25 μl of various test compounds. The third 25 μl of solution contained a mixture of Yo-Pro-1 and stimulus bzATP (2′(3′)-O-(4-Benzoylbenzoyl)adenosine-5′-triphosphate tri(triethylammonium) salt). The final concentration of Yo-Pro-1 was 2.5 μM and of bzATP 30 μM. Fluorescence increases were measured every 30 minutes in a microplate device with excitation at 475 nm and emission wavelength in the range of 500-550 nm. PPADS (Pyridoxalphosphate-6-azophenyl-2′,4′-disulfonic acid tetrasodium) was used as the positive control. The wells with no test compounds added nor bzATP and only containing PBS and Yo-Pro-1 were served as the negative control (N Contl). The positive control (P Contl) wells were the same as N Contl but contained the stimulus, bzATP in this case.
(§2) Data used for analysis were from microplate readings 1 hour after bzATP stimulation. The result of each well was first normalized by its corresponding base microplate reading. The base microplate reading was the first reading right after all components were added. Then, the negative control signal was subtracted from. In the negative control, the test compound and the stimulus were replaced by PBS. An average of six highest values of the plate (AVG) were considered as 100% and the value of each well was divided by AVG and presented as the relative values in percentages.
For comparison of the antagonistic effectiveness of the compounds of this invention among P2X receptors, assays were conducted at 5 μM. Among 55 compounds tested, 29 can reduce the P2X7R activity to […] of the normal activity (Table 2).

The target in test [1] is T2, Human P2X2 receptor (P2X2R) (Homo sapiens, UniProt Q9UBL9).
T2 construct: expressed in transfected cells; host or cells: HEK-293
T2 sequence (Q9UBL9 1-471): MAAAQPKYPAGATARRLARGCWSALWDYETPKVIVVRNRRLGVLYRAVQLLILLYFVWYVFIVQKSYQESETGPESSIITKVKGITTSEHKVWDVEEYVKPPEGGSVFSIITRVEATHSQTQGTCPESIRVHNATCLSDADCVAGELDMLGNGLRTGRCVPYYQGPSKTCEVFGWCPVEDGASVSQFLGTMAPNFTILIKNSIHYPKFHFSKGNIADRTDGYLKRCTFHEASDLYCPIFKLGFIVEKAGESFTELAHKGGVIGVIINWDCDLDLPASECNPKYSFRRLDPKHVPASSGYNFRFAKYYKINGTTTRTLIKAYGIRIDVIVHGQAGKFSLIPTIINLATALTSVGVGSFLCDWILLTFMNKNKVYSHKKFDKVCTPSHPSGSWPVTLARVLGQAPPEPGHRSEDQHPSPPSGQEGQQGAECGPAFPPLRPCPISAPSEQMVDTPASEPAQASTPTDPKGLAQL
The test can be described thus: Yo-Pro-1 uptake assay, P2X2R transfected HEK-293 cells. In kind it is cell-based. The following applies: HEK293, compound at 5 μM, 5 μM ATP stimulus, read-out: Percentage of activity remains in the presence of the compound at 5 μM, P2X2R (Yo-Pro-1 Assay).
Description: as §1, §2
Human P2X2 receptor (P2X2R) construct (J. Biol. Chem. 290, 7930-7942) was transiently transfected to HEK-293 cells and the Yo-Pro-1 assay was performed as described above. When 5 μM ATP was used as the stimulus, the elevation of receptor mediated activity can be seen in 10 minutes.

Where a name gives a salt, the structure may show the parent alone.

`O=C(CCc1ccccc1)NC1CCCN(c2ccc(S(=O)(=O)NC3CCCCC3)cc2)C1` (stereo not drawn) [#51]: at P2X7R, the remaining activity at 5 µM is -1% and the concentration for half-maximal inhibition (IC50) (as a rule, the concentration needed to halve the response being measured) was 3.1 µM. The remaining activity at 5 µM in test [1] worked out at 46.6%.
With `CC(C)COc1ccc(S(=O)(=O)N2CCCC(NC(=O)CCc3ccccc3)C2)cc1` (stereo not drawn) [#6], on P2X7R, the remaining activity at 5 µM is 10.7% and the IC50 is 2.7 µM. Besides, the remaining activity at 5 µM in test [1] is 54.3%.
Taken in the same sequence, the figures for `O=C(CCc1ccccc1)NC1CCCN(c2ccc(S(=O)(=O)NCc3ccco3)cc2)C1` (stereo not drawn) [#52] were 36.9%, 2.2 µM and 45.8%.
Taken in the same sequence, the figures for `CS(=O)(=O)c1ccc(N2CCCC(NC(=O)CCc3ccccc3)C2)cc1` (stereo not drawn) [#1] were 20%, 3.9 µM and 44%.
Turning to `CC1CCCN(c2ccc(S(=O)(=O)N3CCCC(NC(=O)CCc4ccccc4)C3)cc2)C1` (stereo not drawn) [#44], the figures for the remaining activity at 5 µM (on P2X7R; in test [1]) were -5.1% and 61.4%, respectively. In addition, the IC50 on P2X7R was 0.1 µM.
On the same counts, the results for `CC1CCCCN1c1ccc(S(=O)(=O)N2CCCC(NC(=O)CCc3ccccc3)C2)cc1` (stereo not drawn) [#47] are -7.4%, 69.7% and 0.1 µM.
As to `CC(C)(C)OC(=O)N1CCN(c2ccc(S(=O)(=O)N3CCCC(C(=O)NCCc4ccccc4)C3)cc2)CC1` (stereo not drawn) [#36], on P2X7R, the remaining activity at 5 µM was determined as 47.3% and the IC50 is 11.5 µM. For the same molecule, the remaining activity at 5 µM in test [1] amounted to 61.8%.
Taken in the same sequence, the figures for `O=C(CCc1ccccc1)NC1CCCN(c2ccc(S(=O)(=O)Nc3ccccc3)cc2)C1` (stereo not drawn) [#50] were -1.1%, 0.6 µM and 59.7%.
Taken in the same sequence, the figures for `CC(C)(C)OC(=O)N1CCC(C2CCN(c3ccc(S(=O)(=O)N4CCCC(NC(=O)CCc5ccccc5)C4)cc3)CC2)CC1` (stereo not drawn) [#41] were 18.3%, 1.8 µM and 61.4%.
On the same counts, the results for `CCCCNc1ccc(S(=O)(=O)N2CCC(C(=O)O)CC2)cc1` [#27] are 59%, 9.3 µM and 55.4%.
For the molecule `O=C(CCc1ccccc1)NC1CCCN(S(=O)(=O)c2ccc(-n3cc(Br)cn3)cc2)C1` (stereo not drawn) [#9], the figures for the remaining activity at 5 µM (at P2X7R; in test [1]) were 10.2% and 76.9%, respectively. Also, the 50% inhibitory concentration (IC50) on P2X7R was 16 µM.
With `CC1CCN(c2ccc(S(=O)(=O)N3CCCC(NC(=O)CCc4ccccc4)C3)cc2)CC1` (stereo not drawn) [#40], on P2X7R, the remaining activity at 5 µM is 9.1% and the IC50 is 0.8 µM. The remaining activity at 5 µM in test [1] stood at 69.1%.
On the same counts, the results for `O=C1CCC(N2Cc3c(NC(=O)CCc4ccccc4)cccc3C2=O)C(=O)N1` (stereo not drawn) [#16] are 26%, 3.6 µM and 83.8%.
On the same counts, the results for `O=C(CCc1ccccc1)N1CCN(S(=O)(=O)c2ccc(N3CCOCC3)cc2)CC1` [#32] are 54.3%, 3.8 µM and 79.9%.
For the molecule `O=C(CCc1ccccc1)N1CCNCC1` [#29, hydrochloride], at P2X7R, the remaining activity at 5 µM stood at 88.1% and the IC50 is 10.1 µM. Moreover, in test [1], the remaining activity at 5 µM turned out to be 89.4%.
On the same counts, the results for `O=C(CCc1ccccc1)NC1CCCN(S(=O)(=O)c2ccc(N3CCC(C(F)(F)F)CC3)cc2)C1` (stereo not drawn) [#42] are -1.7%, 0.9 µM and 59.2%.
Regarding `O=C(NCCc1ccccc1)C1CCCN(S(=O)(=O)c2ccc(N3CCOCC3)cc2)C1` (stereo not drawn) [#24], the values for the remaining activity at 5 µM (at P2X7R; in test [1]) were 32.6% and 70.9%, respectively. For the same molecule, at P2X7R, the concentration for half-maximal inhibition (IC50) is 10.2 µM.
In the case of `O=C(CCc1ccccc1)NC1CCCN(S(=O)(=O)c2ccc(F)c(Cl)c2)C1` (stereo not drawn) [#43], the remaining activity at 5 µM on P2X7R came out at 23.5%; in test [1], 71.1%. Further, the IC50 on P2X7R is 3 µM.
On the same counts, the results for `O=C(CCc1ccccc1)NC1CCCN(S(=O)(=O)c2ccc(N3CCCCC3)c(Cl)c2)C1` (stereo not drawn) [#45] are 33.1%, 83.3% and 9.3 µM.
Consider `CC(C)(C)OC(=O)N1CCN(c2ccc(S(=O)(=O)N3CCN(C(=O)CCc4ccccc4)CC3)cc2)CC1` [#31], for which, on P2X7R, the remaining activity at 5 µM is 12.9% and the IC50 is 3 µM. Also, the remaining activity at 5 µM in test [1] amounted to 64%.
Taken in the same sequence, the figures for `O=C(CCc1ccccc1)NC1CCCN(S(=O)(=O)c2ccc(OCc3ccccc3)cc2)C1` (stereo not drawn) [#4] were 38.4%, 8.2 µM and 64.9%.
Taken in the same sequence, the figures for `O=C(CCc1ccccc1)NC1CCCN(c2ccc(S(=O)(=O)N3CCCC3)cc2)C1` (stereo not drawn) [#55] were 4.6%, 2.9 µM and 85.4%.
Regarding `O=C(CCc1ccccc1)N1CCN(S(=O)(=O)c2ccc(N3CCCC3)cc2)CC1` [#35], on P2X7R, the remaining activity at 5 µM was 23.6% and the IC50 was 3.3 µM. In addition, in test [1], the remaining activity at 5 µM was determined as 70.6%.
Taken in the same sequence, the figures for `NC(=O)c1cc(Br)cc(N2CCOCC2)c1` [#28] were 75.2%, 29 µM and 77.3%.
Turning to `O=C(CCc1ccccc1)N1CCN(S(=O)(=O)c2ccc(NC3CCCCC3)cc2)CC1` [#33], the remaining activity at 5 µM on P2X7R was -8.5%; in test [1], 60.9%. The concentration for half-maximal inhibition (IC50) on P2X7R was 0.4 µM.
On the same counts, the results for `CC(C)OC1CCN(c2ccc(S(=O)(=O)N3CCCC(NC(=O)CCc4ccccc4)C3)cc2)CC1` (stereo not drawn) [#39] are 11.1%, 66.3% and 3.9 µM.
Taken in the same sequence, the figures for `O=C(CCc1ccccc1)NC1CCCN(S(=O)(=O)c2ccc(F)cc2)C1` (stereo not drawn) [#3] were 13.5%, 57% and 3.2 µM.

The record behind these values is US20220380310A1, “P2X7R ANTAGONISTS” (priority 2019, published 2022).
